Assay results from patent US11559538B2, “Substituted 1,2-oxaborolan-2-ols as PDE4 inhibitors” (Pfizer Inc., priority 2018, dated 2023).
Read-outs that look alike come from different tables or passages of the source.

Tests used:
IL-13 = assay: Cytokine assay: IL-13 release from PHA-L stimulated human PBMCs; format: cell-based; conditions: read-out: IL13 IC50
Procedure: (§1) Cytokine inhibitory activity is determined by measuring the effect of test agent on the release of the cytokines IL-4, IL-13 and IFNγ from human peripheral blood mononuclear cells (PBMCs) stimulated with the T-cell mitogen phytohemagglutinin-L (PHA-L). At the time of assay, human PBMCs (Astarte Biologics) are removed from cryopreservation, thawed quickly at 37° C., diluted in assay medium (RPMI-Gibco 1640 medium, 10% heat inactivated fetal bovine serum (HIFBS), 2 mM glutamine and 10 mM HEPES pH 7.4) and then centrifuged at 250×g for 5 minutes. The resulting cell pellet is re-suspended in assay medium to a concentration of approximately 5×10^6 cells/mL and 50 μL of this cell suspension (approximately 250,000 cells) is added to each well of a 384-well cell culture microtiter plate (Perkin Elmer). Varying concentrations of test compound are then diluted in assay medium and added to the assay plate wells in a volume of 25 μL. After −10 minutes at room temperature (21° C.) the cells are stimulated by the addition of 25 μL of PHA-L (14 μg/mL; Millipore) and the assay plate is placed in an incubator at 37° C. in a humidified environment in 5% carbon dioxide. The final assay conditions are approximately 250,000 human PBMCs per well in assay medium containing 3.5 μg/mL PHA-L and the indicated final concentration of test compound (approximately 10 μM to […] by 4-fold dilution). The final concentration of DMSO in the assay is approximately 0.25%. After 48 hours, the assay plate is removed from the incubator and centrifuged at 250×g for 5 minutes. A portion of the resulting cell supernatant is then used to determine the amount of IL-4, IL-13 and IFNγ in each well. Cytokine measurements are made using human IL-4, IL-13 or IFNγ HTRF assay kits (CisBio) following the manufacturer's assay protocol. The concentrations and resulting effect values for tested compounds are plotted and the concentration of compound required for 50% effect (IC50) is determined with a four-parameter logistic dose response equation (E-WorkBook, ID Business Solutions Ltd.) and shown in Table 17.

IL-4 = assay: Cytokine assay: IL-4 release from PHA-L stimulated human PBMCs; format: cell-based; conditions: read-out: IL4 IC50
Procedure: as §1

IFNγ = assay: Cytokine assay: IFNγ release from PHA-L stimulated human PBMCs; format: cell-based
Procedure: as §1

[1] = biological target: PDE4B (aa 152-484, Uniprot ID Q07343) (Homo sapiens (Human), UniProt Q07343); assay: PDE4 SPA assay (scintillation proximity assay); format: biochemical; conditions: read-out: PDE4B2 IC50
Chain of PDE4B (aa 152-484, Uniprot ID Q07343) (Q07343 324-656): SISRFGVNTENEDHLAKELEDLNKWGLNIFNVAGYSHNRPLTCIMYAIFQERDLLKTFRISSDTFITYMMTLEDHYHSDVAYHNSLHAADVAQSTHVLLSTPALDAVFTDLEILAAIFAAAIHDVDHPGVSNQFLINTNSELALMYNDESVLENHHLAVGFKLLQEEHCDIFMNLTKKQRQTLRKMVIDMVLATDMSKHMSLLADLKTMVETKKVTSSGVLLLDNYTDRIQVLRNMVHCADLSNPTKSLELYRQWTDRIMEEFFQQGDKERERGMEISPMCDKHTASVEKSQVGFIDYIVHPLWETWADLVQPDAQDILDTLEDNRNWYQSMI
Procedure: Phosphodiesterase (PDE) activity is determined by measuring the effect of a test agent on the activity of the PDE4B enzyme in a scintillation proximity assay (SPA). At the time of assay, approximately 30 μL of PDE4B (aa 152-484, Uniprot ID Q07343) in 50 mM Tris pH 7.5, 1.3 mM MgC2, 0.004% Brij 35 is added to a 384 well white clear bottom polystyrene plate (Corning) containing 1 μL of varying concentrations of test compound. After −10 minutes at room temperature (RT; 21° C.), the assay is initiated by the addition of 20 μL of a mixture of ^3H-labeled (adenosine 3′, 5′-cyclic phosphate, ammonium salt, [2,8-^3H]; Perkin Elmer) and unlabeled cAMP. The final assay conditions are approximately 81.6 pM PDE4B in 50 mM Tris pH 7.5, 1.3 mM MgCl2, 0.004% Brij 35, 1 μM ^3H-labeled/unlabeled cAMP (1425 dpm/pmol) and the indicated final concentration of test compound (approximately 10 μM to […] by 4-fold dilution). The final concentration of DMSO in the assay is approximately 2.0%. After 30 minutes at RT, the assay is terminated by the addition of approximately 20 μL of an aqueous solution of PDE YSI SPA beads (8 mg/mL in water; Perkin Elmer). The beads are allowed to settle for at least 2 hours and the plate is then counted on a MicroBeta2 (Perkin Elmer). The concentrations and resulting effect values for the tested compound are plotted and the concentration of compound required for 50% effect (IC50) is determined with a four-parameter logistic dose response equation (E-WorkBook, ID Business Solutions Ltd.) and shown in Table 17.

IC50 (IL-13) [nM]	IC50 (IL-4) [nM]	IC50 (IFNγ) [nM]	IC50 [1] [nM]	IC50 (IL-13; Homo sapiens, PBMC) [nM]	IC50 (IL-4; Homo sapiens, PBMC) [nM]	IC50 (IFNγ; Homo sapiens, PBMC) [nM]	Compound
283	17.6	0.72	1.05	–	–	–	COc1ccc(-c2cncc(C3COB(O)C3)c2)cc1OC(C)C (single isomer, unassigned) [Example 6, 4-(5-(3-isopropoxy-4-methoxyphenyl)pyridin-3-yl)-1,2-oxaborolan-2-ol]
289	7.76	0.71	0.97	–	–	–	COc1ccc(-c2cncc(C3COB(O)C3)c2)cc1OC1CC1 (single isomer, unassigned) [Example 7, 4-(5-(3-cyclopropoxy-4-methoxyphenyl)pyridin-3-yl)-1,2-oxaborolan-2-ol]
25	0.76	1.2	2.42	–	–	–	COc1ccc(-c2cncc(C3COB(O)C3)c2)cc1OCCO (single isomer, unassigned) [Example 8, 4-(5-(3-(2-hydroxyethoxy)-4-methoxyphenyl)pyridin-3-yl)-1,2-oxaborolan-2-ol]
–	–	–	1.26	265	3.63	1.87	COc1ccc(-c2cncc(C3COB(O)C3)c2)cc1OCCCO (single isomer, unassigned) [Example 9, 4-(5-(3-(3-hydroxypropoxy)-4-methoxyphenyl)pyridin-3-yl)-1,2-oxaborolan-2-ol]
–	–	–	1.5	91	3.21	1.85	CCOc1cc(-c2cncc(C3COB(O)C3)c2)c(F)cc1OC (single isomer, unassigned) [Example 14, 4-(5-(5-ethoxy-2-fluoro-4-methoxyphenyl)pyridin-3-yl)-1,2-oxaborolan-2-ol]
–	–	–	1.57	136	1.41	0.71	CCOc1cc(-c2cncc(C3COB(O)C3)c2)c(Cl)cc1OC (single isomer, unassigned) [Example 15, 4-(5-(2-chloro-5-ethoxy-4-methoxyphenyl)pyridin-3-yl)-1,2-oxaborolan-2-ol]
126	0.54	0.82	0.05	–	–	–	CCCOc1nc(-c2cncc(C3COB(O)C3)c2)c(F)cc1OC (single isomer, unassigned) [Example 16, 4-(3-fluoro-5-methoxy-6-propoxy-[2,3′-bipyridin]-5′-yl)-1,2-oxaborolan-2-ol]
–	–	–	7.89	257	1.75	1.43	CCCOc1cc(-c2nc(C)cc(C3COB(O)C3)n2)ccc1OC (single isomer, unassigned) [Example 22, 4-(2-(4-methoxy-3-propoxyphenyl)-6-methylpyrimidin-4-yl)-1,2-oxaborolan-2-ol]
–	–	–	0.97	132	0.61	0.85	CCCOc1cc(-c2nc(C3COB(O)C3)cc(C(F)(F)F)n2)ccc1OC (single isomer, unassigned) [Example 23, 4-(2-(4-methoxy-3-propoxyphenyl)-6-(trifluoromethyl)pyrimidin-4-yl)-1,2-oxaborolan-2-ol]
2570	2.66	1.44	0.28	–	–	–	CCCOc1nc(-c2cncc(C3COB(O)C3)c2)ccc1OC (single isomer, unassigned) [Example 62, 4-(5-methoxy-6-propoxy-[2,3′-bipyridin]-5′-yl)-1,2-oxaborolan-2-ol]
327	–	0.71	2.15	–	86.5	–	COc1ccc(-c2cccc(C3COB(O)C3)n2)cc1OC1CCCC1 (single isomer, unassigned) [Example 66, 4-(6-(3-(cyclopentyloxy)-4-methoxyphenyl)pyridin-2-yl)-1,2-oxaborolan-2-ol]

The remaining lines, values behind:

Compound	IC50 (IL-13) [nM]	IC50 (IL-4) [nM]	IC50 (IFNγ) [nM]	IC50 [1] [nM]	IC50 (IL-13; Homo sapiens, PBMC) [nM]	IC50 (IL-4; Homo sapiens, PBMC) [nM]	IC50 (IFNγ; Homo sapiens, PBMC) [nM]
COc1ccc(-c2cncc(C3COB(O)C3)c2)cc1OC (single isomer, unassigned) [Example 1, 4-(5-(3,4-dimethoxyphenyl)pyridin-3-yl)-1,2-oxaborolan-2-ol]	284	14.3	2.98	3.16	–	–	–
CCOc1c(OC)ccc(-c2cncc(C3COB(O)C3)c2)c1C(F)F (single isomer, unassigned) [Example 11, 4-(5-(2-(difluoromethyl)-3-ethoxy-4-methoxyphenyl)pyridin-3-yl)-1,2-oxaborolan-2-ol]	10000	141	68.3	33.5	–	–	–
CCOc1cc(-c2cncc(C3COB(O)C3)c2)cc(F)c1OC (single isomer, unassigned) [Example 12, 4-(5-(3-ethoxy-5-fluoro-4-methoxyphenyl)pyridin-3-yl)-1,2-oxaborolan-2-ol]	162	2.32	0.99	1.08	–	–	–
CCOc1cc(-c2cncc(C3COB(O)C3)c2)cc(Cl)c1OC (single isomer, unassigned) [Example 13, 4-(5-(3-chloro-5-ethoxy-4-methoxyphenyl)pyridin-3-yl)-1,2-oxaborolan-2-ol]	166	5.98	4.89	0.97	–	–	–
CCCOc1cc(-c2cncc(C3COB(O)C3)c2)ccc1OC(F)F (single isomer, unassigned) [Example 17, 4-(5-(4-(difluoromethoxy)-3-propoxyphenyl)pyridin-3-yl)-1,2-oxaborolan-2-ol]	–	–	–	0.28	138	0.65	0.47
CCCOc1cc(-c2cncc(C3COB(O)C3)c2)cnc1OC (single isomer, unassigned) [Example 18, 4-(6′-methoxy-5′-propoxy-[3,3′-bipyridin]-5-yl)-1,2-oxaborolan-2-ol]	–	–	–	0.74	218	1.91	2.23
CCOc1cc(-c2cc([C@@H]3COB(O)C3)cnc2C)ccc1OC (single isomer, unassigned) [Example 19]	–	–	–	2.96	1480	2.56	1.68
CCOc1cc(-c2cc([C@H]3COB(O)C3)cnc2C)ccc1OC (single isomer, unassigned) [Example 20]	–	–	–	26.9	8790	86.8	103
CCOc1cc(-c2cncc(C3COB(O)C3)c2C)ccc1OC (single isomer, unassigned) [Example 21, 4-(5-(3-ethoxy-4-methoxyphenyl)-4-methylpyridin-3-yl)-1,2-oxaborolan-2-ol]	159	0.84	1.35	0.64	–	–	–
CCOc1cc(-c2cncc(C3COB(O)C3)n2)ccc1OC (single isomer, unassigned) [Example 24, 4-(6-(3-ethoxy-4-methoxyphenyl)pyrazin-2-yl)-1,2-oxaborolan-2-ol]	–	–	–	0.99	163	2.24	1.33
CCCOc1nc(-c2cncc(C3COB(O)C3)c2)ccc1OC (single isomer, unassigned) [Example 61, 4-(5-methoxy-6-propoxy-[2,3′-bipyridin]-5′-yl)-1,2-oxaborolan-2-ol]	499	0.73	–	0.53	–	–	2.12
